This note sets out measurements from PubChem BioAssay AID330 (DTP/NCI, 2004).

The subject of this assay is P388 leukemia ip, CD2F1 mice, survival T/C. Kind of assay: NCI In Vivo Anticancer Drug Screen. Data for tumor model P388 Leukemia (intraperitoneal) in CD2F1 (CDF1) mice. The note with it: endpoint: median survival time, higher = longer survival. In outline: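 Mice carrying the transplanted tumor received test compound or vehicle. Survival was recorded in each group, and the value is the treated-group measurement divided by that of the vehicle-treated control group.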

Where [1] appears, read: dose: 50.0 mg/kg/injection, schedule: Q01DX009 (ip), vehicle: saline.
[2] abbreviates: dose: 100.0 mg/kg/injection, schedule: Q01DX009 (ip), vehicle: saline.
Where [3] appears, read: dose: 200.0 mg/kg/injection, schedule: Q01DX009 (ip), vehicle: saline.
Where [4] appears, read: dose: 50.0 mg/kg/injection, schedule: Q01DX009 (ip), vehicle: Klucel (hydroxypropylcellulose) (HPC).
[5] abbreviates: dose: 100.0 mg/kg/injection, schedule: Q01DX009 (ip), vehicle: Klucel (hydroxypropylcellulose) (HPC).
[6] abbreviates: dose: 50.0 mg/kg/injection, schedule: Q01DX005 (ip), vehicle: saline with Tween-80.
The mark [7] stands for this setting: dose: 100.0 mg/kg/injection, schedule: Q01DX005 (ip), vehicle: saline with Tween-80.
Setting [8] is: dose: 50.0 mg/kg/injection, schedule: Q01DX009 (ip), vehicle: saline with Tween-80.
The mark [9] stands for this setting: dose: 100.0 mg/kg/injection, schedule: Q01DX009 (ip), vehicle: saline with Tween-80.
Where [10] appears, read: dose: 25.0 mg/kg/injection, schedule: Q04DX003 (ip), vehicle: saline with Tween-80.
The mark [11] stands for this setting: dose: 50.0 mg/kg/injection, schedule: Q04DX003 (ip), vehicle: saline with Tween-80.
[12] abbreviates: dose: 100.0 mg/kg/injection, schedule: Q04DX003 (ip), vehicle: saline with Tween-80.
Setting [13] is: dose: 200.0 mg/kg/injection, schedule: Q04DX003 (ip), vehicle: saline with Tween-80.

Values joined by “and” are separate entries in the source; they are usually repeats but may differ in a detail not shown here. Equal values may be shown once. Inconclusive results and toxic doses are left out.

`Nc1ncnc2c1ncn2C1OC(CO)C(N)C1O` (stereo unspecified): the T/C is, setting by setting: (dose: 100.0 mg/kg/injection, schedule: Q04DX002 (ip), vehicle: saline with Tween-80) 102 % of control; (dose: 200.0 mg/kg/injection, schedule: Q04DX002 (ip), vehicle: saline with Tween-80) 102 % of control; (dose: 400.0 mg/kg/injection, schedule: Q04DX002 (ip), vehicle: saline with Tween-80) 105 % of control.
Turning to `Cc1cccc(Nc2cc(Cl)nc(SCC(=O)O)n2)c1C`, the T/C is 100 % of control under setting [1], 98 % of control under setting [2] and 100 % of control under setting [3].
On to `CNC(=O)OCc1nn(-c2ccc(OC)cc2)c(C)c1COC(=O)NC`, for which the T/C was 92 % of control (dose: 12.5 mg/kg/injection, schedule: Q01DX009 (ip), vehicle: distilled water + Tween-80); 90 % of control (dose: 25.0 mg/kg/injection, schedule: Q01DX009 (ip), vehicle: distilled water + Tween-80); 90 % of control (dose: 50.0 mg/kg/injection, schedule: Q01DX009 (ip), vehicle: distilled water + Tween-80); 90 % of control (dose: 100.0 mg/kg/injection, schedule: Q01DX009 (ip), vehicle: distilled water + Tween-80); 87 % of control (dose: 200.0 mg/kg/injection, schedule: Q01DX009 (ip), vehicle: distilled water + Tween-80).
Regarding `Cc1nn(C(=O)c2ccncc2)c(C)c1N=Nc1ccc([N+](=O)[O-])cc1`, the T/C was 92 % of control under setting [4] and 93 % of control under setting [5].
Turning to `CC1CCC2(CC1=O)C(C)CC(=O)C2C(C)C` (stereo unspecified), the T/C was 112 % of control under setting [4]; 114 % of control under setting [5]; 95 % of control (dose: 100.0 mg/kg/injection, schedule: Q04DX003 (ip), vehicle: other); 98 % of control (dose: 200.0 mg/kg/injection, schedule: Q01DX009 (ip), vehicle: Klucel (hydroxypropylcellulose) (HPC)); 90 % of control (dose: 200.0 mg/kg/injection, schedule: Q04DX003 (ip), vehicle: other); 100 % of control (dose: 400.0 mg/kg/injection, schedule: Q04DX003 (ip), vehicle: other).
Regarding `O=C1C(Cl)OC(c2ccccc2)=NN1c1ccccc1` (stereo unspecified), the T/C (dose: 50.0 mg/kg/injection, schedule: Q01DX005 (ip), vehicle: distilled water + alcohol) was 97 % of control; the T/C (dose: 100.0 mg/kg/injection, schedule: Q01DX005 (ip), vehicle: distilled water + alcohol) was 107 % of control; the T/C (dose: 200.0 mg/kg/injection, schedule: Q01DX005 (ip), vehicle: distilled water + alcohol) is 97 % of control.
`Cc1ccccc1CN1CC2=C(CCN(Cc3ccccc3)C2=O)N2CCN=C12`: the T/C was 96 % of control under setting [6]; 96 % of control under setting [7]; 100 % of control (dose: 200.0 mg/kg/injection, schedule: Q01DX005 (ip), vehicle: saline with Tween-80).
Turning to `O=C(NC(c1ccccc1)N1CCOCC1)c1ccccc1` (stereo unspecified), the T/C by setting is: (dose: 50.0 mg/kg/injection, schedule: Q01DX005 (ip), vehicle: Klucel + Tween-80) 108 % of control; (dose: 100.0 mg/kg/injection, schedule: Q01DX005 (ip), vehicle: Klucel + Tween-80) 112 % of control; (dose: 200.0 mg/kg/injection, schedule: Q01DX005 (ip), vehicle: Klucel + Tween-80) 114 % of control.
Turning to `C/C(=N\NC(=S)N(C)C)c1ncc[nH]1`, the T/C by setting is: under setting [6], 121 % of control; under setting [7], 119 % of control.
Turning to `C/C(=N\NC(=S)N1CCCC1)c1cccc(C)n1`, the T/C (dose: 12.5 mg/kg/injection, schedule: Q01DX005 (ip), vehicle: saline + Tween-80 + alcohol) was 104 % of control and 106 % of control; the T/C (dose: 25.0 mg/kg/injection, schedule: Q01DX005 (ip), vehicle: saline + Tween-80 + alcohol) was 108 % of control and 113 % of control; the T/C (dose: 50.0 mg/kg/injection, schedule: Q01DX005 (ip), vehicle: saline + Tween-80 + alcohol) was 122 % of control.
Take `CC1(C)CC(=O)C=C(NC2CCCCC2)C1`: the T/C was 91 % of control under setting [8] and 100 % of control under setting [9].
Turning to `CCOC(=O)C(=O)Cc1ccc(C(=N)N)cc1`, the T/C is, setting by setting: under setting [1], 101 % of control; under setting [2], 96 % of control; under setting [3], 88 % of control.
`Cc1ccc(S(=O)(=O)CC(=O)c2ccc(Br)cc2)cc1`: the T/C under setting [9] is 92 % of control.
Take `CN(C)c1ccc(C(=C2C=CC(=[N+](C)c3ccccc3)c3ccccc32)c2ccc(N(C)C)cc2)cc1`: under “dose: 1.56 mg/kg/injection, schedule: Q01DX005 (ip), vehicle: saline with Tween-80”, the T/C is 116 % of control.
Take `O=CN(Nc1ccccc1)C(=O)Nc1ccc(Cl)c(Cl)c1`: the T/C is 96 % of control (dose: 100.0 mg/kg/injection, schedule: Q04DX002 (ip), vehicle: Klucel (hydroxypropylcellulose) (HPC)); 97 % of control (dose: 200.0 mg/kg/injection, schedule: Q04DX002 (ip), vehicle: Klucel (hydroxypropylcellulose) (HPC)); 104 % of control (dose: 400.0 mg/kg/injection, schedule: Q04DX002 (ip), vehicle: Klucel (hydroxypropylcellulose) (HPC)).
On to `Cc1ccc(N2N=NC3C4CCC(C)(C4(C)C)C32O)cc1` (stereo unspecified), for which the T/C runs as follows: (dose: 50.0 mg/kg/injection, schedule: Q04DX002 (ip), vehicle: other) 92 % of control; (dose: 100.0 mg/kg/injection, schedule: Q04DX002 (ip), vehicle: other) 98 % of control; (dose: 200.0 mg/kg/injection, schedule: Q04DX002 (ip), vehicle: other) 93 % of control.
`CCOc1ccc(-c2nc(Cl)nc(Cl)n2)c2ccccc12`: the T/C runs as follows: (dose: 60.0 mg/kg/injection, schedule: Q01DX005 (ip), vehicle: Klucel (hydroxypropylcellulose) (HPC)) 104 % of control; (dose: 120.0 mg/kg/injection, schedule: Q01DX005 (ip), vehicle: Klucel (hydroxypropylcellulose) (HPC)) 111 % of control.
In the case of `Cc1ccc(NC2=C([n+]3ccc(C)cc3)C(=O)c3ccccc3C2=O)cc1`, the T/C runs as follows: (dose: 12.5 mg/kg/injection, schedule: Q01DX005 (ip), vehicle: saline with Tween-80) 100 % of control; (dose: 25.0 mg/kg/injection, schedule: Q01DX005 (ip), vehicle: saline with Tween-80) 109 % of control; under setting [6], 124 % of control.
In the case of `C/C(=N\N=C(\[Se])N1CC(C)OC(C)C1)c1ccccn1` (stereo unspecified), the T/C by setting is: (dose: 10.0 mg/kg/injection, schedule: Q04DX003 (ip), vehicle: saline with Tween-80) 100 % of control; under setting [10], 106 % of control; under setting [11], 107 % of control; under setting [12], 109 % of control; under setting [13], 121 % of control.
On to `CCOc1c(OC)cc(-c2n[nH]c(=S)o2)cc1OC`, for which the T/C is 101 % of control (dose: 100.0 mg/kg/injection, schedule: Q04DX003 (ip), vehicle: Klucel (hydroxypropylcellulose) (HPC)); 95 % of control (dose: 200.0 mg/kg/injection, schedule: Q04DX003 (ip), vehicle: Klucel (hydroxypropylcellulose) (HPC)); 100 % of control (dose: 400.0 mg/kg/injection, schedule: Q04DX003 (ip), vehicle: Klucel (hydroxypropylcellulose) (HPC)).
On to `O=C(NO)c1coc2ccccc2c1=O`, for which the T/C was 101 % of control (dose: 60.0 mg/kg/injection, schedule: Q01DX005 (ip), vehicle: saline with Tween-80) and 103 % of control (dose: 120.0 mg/kg/injection, schedule: Q01DX005 (ip), vehicle: saline with Tween-80).
Consider `O=[n+]1c2ccccc2n([O-])c2cc(Cl)ccc21`, for which the T/C runs as follows: under setting [10], 112 % of control; under setting [8], 150 % of control; under setting [11], 112 % of control; under setting [9], 154 % of control and 174 % of control; under setting [12], 107 % of control; under setting [13], 114 % of control. The T/C (dose: 400.0 mg/kg/injection, schedule: Q04DX003 (ip), vehicle: saline with Tween-80) was 114 % of control.
Regarding `CN(C)c1nc(N(C)C)nc(N(C)C=O)n1`, the T/C was 99 % of control (dose: 100.0 mg/kg/injection, schedule: Q01DX001 (ip), vehicle: saline); 97 % of control (dose: 200.0 mg/kg/injection, schedule: Q01DX001 (ip), vehicle: saline); 100 % of control (dose: 400.0 mg/kg/injection, schedule: Q01DX001 (ip), vehicle: saline).
